Data taken from patent US8389679B2, “Targeted antimicrobial moieties” (priority 2009, dated 2013).
Where two headings read alike, the source gives them in different places. Where a SMILES comes first, the peptide text is derived from it. Where no end group is shown, it is not given here.

Assays:
S. epidermidis [1] = assay: Microbial population shift assay (mixed planktonic culture); format: cell-based, Staphylococcus epidermidis; details: 10 μM peptide, 24 h, FIG. 16
Method: (§1) FIG. 16 illustrates the selective activity of dual-targeted and single-targeted MH-STAMPs in mixed culture. […] After incubation, cfu/mL of remaining constituent species were quantitated after plating to selective media. * indicates under 200 surviving cfu/mL recovered.
(§2) Peptide (10 μM) or mock-treatment (1×PBS) was then added and samples were incubated at 37° C. for 24 h under anaerobic conditions (80% N2, 15% CO2, 5% H2). […] Plates were then incubated 37° C. under aerobic conditions (TH plates were incubated anaerobically) and colonies counted after 24 h to determine survivors. […] Gram stains and direct microscopic observation (from select isolated colonies) were undertaken to confirm species identity (data not shown). The detection limit of the assay was 200 cfu/mL.

P. aeruginosa [2] = assay: as above; format: cell-based, Pseudomonas aeruginosa; details: 10 μM peptide, 24 h, FIG. 16
Method: as §1, §2

S. mutans [3] = assay: as above; format: cell-based, Streptococcus mutans; details: 10 μM peptide, 24 h, FIG. 16
Method: as §1, §2

E. coli [4] = assay: as above; format: cell-based, Escherichia coli; details: 10 μM peptide, 24 h, FIG. 16
Method: as §1, §2

S. mutans [5] = assay: Post-antibiotic effect assay (growth retardation in monoculture); details: peptide for 10 min, then fresh medium, FIG. 15A
Method: (§3) Agent was then removed and fresh media returned. Culture recovery was measured over time (OD600). Plots represent the average of at least 3 independent experiments with standard deviations.
(§4) The activity and selectivity of MH-STAMPs after a 10 min incubation was determined by growth retardation experiments against targeted and untargeted bacteria in monocultures, as described previously [10, 11]. Cells from overnight cultures were diluted to ˜5×10^6 cfu/mL in MH (or TH with 1% sucrose for S. mutans), normalized by OD600 0.05-0.1 and seeded to 96-well plates. Cultures were then grown under the appropriate conditions for 2 h (3 h for S. mutans) prior to the addition of peptides for 10 min. Plates were then centrifuged at 3000×g for 5 min, the supernatants discarded, fresh medium returned (MH or TH without sucrose for S. mutans), and incubation resumed. Bacterial growth after treatment was then monitored over time by OD600.

S. mutans [6] = system: S. mutans
bacteria = assay: Bacterial binding of blank peptide (data not shown)
S. mutans [7] = assay: Growth phenotype or other activity induced by peptide (Table 9); format: cell-based
S. mutans biofilms = assay: Binding of targeting peptides by fluorescent microscopy; parameters: species or system Streptococcus mutans; details: 25 μM peptide, 5 min; data not shown
Method: Binding of Targeting Peptides. The binding of peptides 1—2, 1—3, 1—4, 1—6, 2—1, and 3—1 was assessed by fluorescent microscopy. S. mutans UA159 was grown overnight and diluted 1:5000 in fresh TH with 1% sucrose before seeding to 96-well plates (flat bottom). Biofilms were grown 24 h and the spent medium replaced with 1×PBS containing 25 μM peptide. After 5 min incubation at room temperature, the supernatants were removed and the biofilms washed 2× with 1×PBS and imaged by bright-field and fluorescence microscopy (Nikon E400). Digital images were collected and analyzed for semiquantitative binding assessments with the manufacturers supplied software (SPOT, Diagnostics) (6).

S. aureus = assay: Post-antibiotic effect assay (growth retardation in monoculture); format: cell-based, Staphylococcus aureus; details: peptide for 10 min, then fresh medium, FIG. 15D
S. epidermidis [8] = assay: as above; details: peptide for 10 min, then fresh medium, FIG. 15C
Method: as §3, §4

P. aeruginosa [9] = assay: as above; details: peptide for 10 min, then fresh medium, FIG. 15B
E. coli [10] = assay: as above; format: cell-based, Escherichia coli; details: peptide for 10 min, then fresh medium, FIG. 15E
[11] = Library 2 STAMPs, all S. mutans isolates tested, minimum of three independent trials

With `CC[C@H](C)[C@H](NC(=O)[C@H](Cc1ccccc1)NC(=O)CCCCCCCNC(=O)[C@H](CCCCNC(=O)CNC(=O)CNC(=O)CNC(=O)[C@H](Cc1c[nH]cn1)NC(=O)[C@H](CCCCN)NC(=O)[C@H](CCCNC(=N)N)NC(=O)[C@H](Cc1c[nH]cn1)NC(=O)[C@H](CCCCN)NC(=O)[C@H](CCCNC(=N)N)NC(=O)[C@H](Cc1c[nH]cn1)NC(=O)[C@H](CCCCN)NC(=O)[C@H](CCCNC(=N)N)NC(=O)[C@H](Cc1c[nH]cn1)NC(=O)[C@H](CCCCN)NC(=O)[C@@H](N)CCCCN)NC(=O)CNC(=O)CNC(=O)CNC(=O)[C@H](C)NC(=O)[C@H](CCC(=O)O)NC(=O)[C@H](CC(N)=O)NC(=O)[C@H](C)NC(=O)[C@H](C)NC(=O)[C@H](CC(=O)O)NC(C)=O)C(=O)N[C@@H](CCCNC(=N)N)C(=O)N[C@@H](CCCCN)C(=O)N[C@@H](Cc1ccccc1)C(=O)N[C@@H](CC(C)C)C(=O)N[C@@H](CCCCN)C(=O)N[C@@H](CCCCN)C(=O)N[C@@H](Cc1c[nH]c2ccccc12)C(=O)N[C@@H](CC(C)C)C(=O)N[C@@H](CC(C)C)C(N)=O` [BL(KH)-20] (HELM PEPTIDE1{[ac].D.A.A.N.E.A.G.G.G.K.[O=C(CCCCCCCN[*:1])[*:2]].F.I.R.K.F.L.K.K.W.L.L.[am]}|PEPTIDE2{K.K.H.R.K.H.R.K.H.R.K.H.G.G.G}$PEPTIDE1,PEPTIDE2,11:R3-15:R2$$$V2.0) the “recoverable S. epidermidis cfu/mL in mixed culture (in words)” value (S. epidermidis [1]) was “unchanged numbers”, the “recoverable P. aeruginosa cfu/mL in mixed culture (in words)” value (P. aeruginosa [2]) was “not observed” and the “recoverable S. mutans cfu/mL in mixed culture (in words)” value (S. mutans [3]) was “higher than input cfu/mL”. For the same compound, the “recoverable E. coli cfu/mL in mixed culture (in words)” value (E. coli [4]) was “unchanged numbers” and the “S. mutans growth after treatment (culture recovery, OD600)” value (S. mutans [5]) was “not altered”.

In the case of “Ac-FHFHLHFGGGFIKHFIHRF-NH2 [Ac135(L1)2_1, Ac-FHFHLHFGGGFIKHFIHRF]”, the “S. mutans (MIC)” value (S. mutans [6]) is reported as 32 µg/mL.

With “DAANEA-GGG (DAANEAGGG; synthetic BL-1 peptide with no bacterial binding)” the bacterial binding (bacteria) was “no bacterial binding”.

EIPIQLANDLANYYDISLDSIFFW [G-4] was tested, and the “Organism, effect (S. mutans)” value (S. mutans [7]) was “Biofilm structure”.

In the case of “FHFHLHF (not fully specified (C-terminus)) [PL-135]”, the “activity against S. mutans relative to progeny STAMPs” value (S. mutans [6]; FIG. 17 and Table 16) is reported as 2 to 4 fold.

With “FHFHLHFAAAFIKHFIHRF-NH2 [135(L2)2_1, FHFHLHFAAAFIKHFIHRF]” the “S. mutans (MIC)” value (S. mutans [6]) was 16 µg/mL.

In the case of “FHFHLHFAGAFIKHFIHRF-NH2 [135(L13)2_1, FHFHLHFAGAFIKHFIHRF]”, the “S. mutans (MIC)” value (S. mutans [6]) is reported as 32 µg/mL.

For FHFHLHFGAGAGFIKHFIHRF-NH2 [135(L14)2_1], the “S. mutans (MIC)” value (S. mutans [6]) was 32 µg/mL.

For “FHFHLHFGGGFIKHFIHRF-NH2 [135(L1)2_1, FHFHLHFGGGFIKHFIHRF]”, the “S. mutans (MIC)” value (S. mutans [6]) was 16 µg/mL and the “concentration active against S. mutans (MIC)” value (S. mutans [6]) was “lower than 100 μg/mL”.

For FHFHLHFGGGGFIKHFIHRF-NH2 [135(G4)2_1], the “S. mutans (MIC)” value (S. mutans [6]) was 16 µg/mL.

For FHFHLHFGGGGGFIKHFIHRF-NH2 [135(G5)2_1], the “S. mutans (MIC)” value (S. mutans [6]) was 16 µg/mL.

In the case of FHFHLHFGGGGGGFIKHFIHRF-NH2 [135(G6)2_1], the “S. mutans (MIC)” value (S. mutans [6]) is reported as 32 µg/mL.

With “FHFHLHFGGGGGGGFIKHFIHRF-NH2 [135(G7)2_1]” the “S. mutans (MIC)” value (S. mutans [6]) was 32 µg/mL.

For FHFHLHFGSGSGFIKHFIHRF-NH2 [135(L12)2_1], the “S. mutans (MIC)” value (S. mutans [6]; [11]) was 32 µg/mL.

In the case of “FHFHLHFSGSFIKHFIHRF-NH2 [135(L11)2_1, FHFHLHFSGSFIKHFIHRF]”, the “S. mutans (MIC)” value (S. mutans [6]; [11]) is reported as 32 µg/mL.

“FHLHFHFGGGFRHIFHKIF-NH2 [135i(L1)2_1i, FHLHFHFGGGFRHIFHKIF]” was tested, and the “S. mutans (MIC)” value (S. mutans [6]) was 16 µg/mL.

In the case of FIKHFIHRF [2_1], the “binding to S. mutans biofilms” value (S. mutans biofilms) is reported as “retain biofilm binding”.

For FIRKFLKKWLL-NH2 [BD2.20, FIRKFLKKWLL], the “recoverable S. epidermidis cfu/mL in mixed culture (in words)” value (S. epidermidis [1]) was “significant loss of recoverable cfu/mL”, the “S. aureus growth after treatment (culture recovery, OD600)” value (S. aureus) was “inhibited” and the “S. epidermidis growth after treatment (culture recovery, OD600)” value (S. epidermidis [8]) was “inhibited”. The “recoverable P. aeruginosa cfu/mL in mixed culture (in words)” value (P. aeruginosa [2]) was “significant loss of recoverable cfu/mL”, the “P. aeruginosa growth after treatment (culture recovery, OD600)” value (P. aeruginosa [9]) was “robust antimicrobial activity” and the “recoverable S. mutans cfu/mL in mixed culture (in words)” value (S. mutans [3]) was “significant loss of recoverable cfu/mL”. For the same compound, the “recoverable E. coli cfu/mL in mixed culture (in words)” value (E. coli [4]) was “significant loss of recoverable cfu/mL”, the “E. coli growth after treatment (culture recovery, OD600)” value (E. coli [10]) was “inhibited” and the “S. mutans growth after treatment (culture recovery, OD600)” value (S. mutans [5]) was “robust antimicrobial activity”.

For “FRHIFHKIFGGGFHLHFHF-NH2 [2_1i(L1)135i, FRHIFHKIFGGGFHLHFHF]”, the “S. mutans (MIC)” value (S. mutans [6]) was 16 µg/mL.

In the case of LIKHILHRL [3_1], the “binding to S. mutans biofilms” value (S. mutans biofilms) is reported as “retain biofilm binding”.

With WWHSWWSTW [1_2] the “binding to S. mutans biofilms” value (S. mutans biofilms) was “retain biofilm binding”.

WWKDWWERW [1_4] was tested, and the “binding to S. mutans biofilms” value (S. mutans biofilms) was “retain biofilm binding”.

With WWQDWWNEW [1_6] the “binding to S. mutans biofilms” value (S. mutans biofilms) was “retain biofilm binding”.

WWSYWWTQW [1_3] was tested, and the “binding to S. mutans biofilms” value (S. mutans biofilms) was “retain biofilm binding”.
